Results: paper PMC6422671 (British Journal of Clinical Pharmacology, 2019)

Test: Vital signs; data mean (standard deviation)
Format: in vivo, healthy men
Excerpt: Data are mean (standard deviation)

SMILES: C[C@@H](N)c1cc(Cl)ccc1Cn1c(=S)[nH]c(=O)c2[nH]ccc21 [AZD4831]
- DBP (5 mg fasted, 0.5 h): 71 (7) mmHg
- Pulse (5 mg fasted, 0.5 h): 61 (4) bpm
- SBP (5 mg fasted, 0.5 h): 116 (10) mmHg
- DBP (5 mg fasted, 1 h): 71 (7) mmHg
- Pulse (5 mg fasted, 1 h): 61 (5) bpm
- SBP (5 mg fasted, 1 h): 114 (8) mmHg
- DBP (5 mg fasted, 2 h): 71 (5) mmHg
- Pulse (5 mg fasted, 2 h): 60 (4) bpm
- SBP (5 mg fasted, 2 h): 119 (10) mmHg
- DBP (5 mg fasted, 3 h): 72 (9) mmHg
- Pulse (5 mg fasted, 3 h): 60 (4) bpm
- SBP (5 mg fasted, 3 h): 119 (12) mmHg
- DBP (5 mg fasted, 4 h): 71 (7) mmHg
- Pulse (5 mg fasted, 4 h): 64 (5) bpm
- SBP (5 mg fasted, 4 h): 118 (9) mmHg
- DBP (5 mg fasted, 6 h): 69 (8) mmHg
- Pulse (5 mg fasted, 6 h): 68 (5) bpm
- SBP (5 mg fasted, 6 h): 118 (11) mmHg
- DBP (5 mg fasted, 8 h): 68 (5) mmHg
- Pulse (5 mg fasted, 8 h): 62 (5) bpm
- SBP (5 mg fasted, 8 h): 117 (9) mmHg
- DBP (5 mg fasted, 12 h): 69 (9) mmHg
- Pulse (5 mg fasted, 12 h): 68 (4) bpm
- SBP (5 mg fasted, 12 h): 118 (13) mmHg
- DBP (5 mg fasted, 24 h): 69 (5) mmHg
- Pulse (5 mg fasted, 24 h): 59 (5) bpm
- SBP (5 mg fasted, 24 h): 112 (5) mmHg
- DBP (5 mg fasted, 36 h): 69 (4) mmHg
- Pulse (5 mg fasted, 36 h): 68 (5) bpm
- SBP (5 mg fasted, 36 h): 119 (6) mmHg
- DBP (5 mg fasted, 48 h): 70 (4) mmHg
- Pulse (5 mg fasted, 48 h): 64 (9) bpm
- SBP (5 mg fasted, 48 h): 116 (8) mmHg
- DBP (15 mg fasted, 0.5 h): 68 (4) mmHg
- Pulse (15 mg fasted, 0.5 h): 58 (9) bpm
- SBP (15 mg fasted, 0.5 h): 115 (7) mmHg
- DBP (15 mg fasted, 1 h): 67 (4) mmHg
- Pulse (15 mg fasted, 1 h): 61 (9) bpm
- SBP (15 mg fasted, 1 h): 115 (8) mmHg
- DBP (15 mg fasted, 2 h): 65 (2) mmHg
- Pulse (15 mg fasted, 2 h): 58 (6) bpm
- SBP (15 mg fasted, 2 h): 113 (4) mmHg
- DBP (15 mg fasted, 3 h): 65 (3) mmHg
- Pulse (15 mg fasted, 3 h): 58 (4) bpm
- SBP (15 mg fasted, 3 h): 112 (5) mmHg
- DBP (15 mg fasted, 4 h): 66 (6) mmHg
- Pulse (15 mg fasted, 4 h): 59 (8) bpm
- SBP (15 mg fasted, 4 h): 113 (5) mmHg
- DBP (15 mg fasted, 6 h): 65 (2) mmHg
- Pulse (15 mg fasted, 6 h): 68 (9) bpm
- SBP (15 mg fasted, 6 h): 119 (9) mmHg
- DBP (15 mg fasted, 8 h): 64 (2) mmHg
- Pulse (15 mg fasted, 8 h): 63 (11) bpm
- SBP (15 mg fasted, 8 h): 116 (7) mmHg
- DBP (15 mg fasted, 12 h): 64 (4) mmHg
- Pulse (15 mg fasted, 12 h): 69 (10) bpm
- SBP (15 mg fasted, 12 h): 119 (5) mmHg
- DBP (15 mg fasted, 24 h): 67 (2) mmHg
- Pulse (15 mg fasted, 24 h): 62 (7) bpm
- SBP (15 mg fasted, 24 h): 113 (4) mmHg
- DBP (15 mg fasted, 36 h): 63 (4) mmHg
- Pulse (15 mg fasted, 36 h): 73 (9) bpm
- SBP (15 mg fasted, 36 h): 118 (5) mmHg
- DBP (15 mg fasted, 48 h): 66 (5) mmHg
- Pulse (15 mg fasted, 48 h): 65 (12) bpm
- SBP (15 mg fasted, 48 h): 114 (7) mmHg
- DBP (45 mg fasted, 0.5 h): 73 (14) mmHg
- Pulse (45 mg fasted, 0.5 h): 59 (11) bpm
- SBP (45 mg fasted, 0.5 h): 122 (13) mmHg
- DBP (45 mg fasted, 1 h): 72 (14) mmHg
- Pulse (45 mg fasted, 1 h): 57 (10) bpm
- SBP (45 mg fasted, 1 h): 125 (12) mmHg
- DBP (45 mg fasted, 2 h): 69 (15) mmHg
- Pulse (45 mg fasted, 2 h): 59 (10) bpm
- SBP (45 mg fasted, 2 h): 122 (17) mmHg
- DBP (45 mg fasted, 3 h): 70 (13) mmHg
- Pulse (45 mg fasted, 3 h): 60 (8) bpm
- SBP (45 mg fasted, 3 h): 120 (14) mmHg
- DBP (45 mg fasted, 4 h): 69 (16) mmHg
- Pulse (45 mg fasted, 4 h): 58 (8) bpm
- SBP (45 mg fasted, 4 h): 121 (13) mmHg
- DBP (45 mg fasted, 6 h): 66 (7) mmHg
- Pulse (45 mg fasted, 6 h): 61 (10) bpm
- SBP (45 mg fasted, 6 h): 120 (9) mmHg
- DBP (45 mg fasted, 8 h): 68 (15) mmHg
- Pulse (45 mg fasted, 8 h): 59 (11) bpm
- SBP (45 mg fasted, 8 h): 116 (11) mmHg
- DBP (45 mg fasted, 12 h): 68 (11) mmHg
- Pulse (45 mg fasted, 12 h): 63 (12) bpm
- SBP (45 mg fasted, 12 h): 124 (12) mmHg
- DBP (45 mg fasted, 24 h): 71 (11) mmHg
- Pulse (45 mg fasted, 24 h): 58 (11) bpm
- SBP (45 mg fasted, 24 h): 118 (9) mmHg
- DBP (45 mg fasted, 36 h): 66 (14) mmHg
- Pulse (45 mg fasted, 36 h): 66 (11) bpm
- SBP (45 mg fasted, 36 h): 121 (9) mmHg
- DBP (45 mg fasted, 48 h): 69 (11) mmHg
- Pulse (45 mg fasted, 48 h): 64 (13) bpm
- SBP (45 mg fasted, 48 h): 120 (10) mmHg
- DBP (45 mg fed, 0.5 h): 66 (16) mmHg
- Pulse (45 mg fed, 0.5 h): 63 (6) bpm
- SBP (45 mg fed, 0.5 h): 121 (15) mmHg
- DBP (45 mg fed, 1 h): 65 (11) mmHg
- Pulse (45 mg fed, 1 h): 66 (11) bpm
- SBP (45 mg fed, 1 h): 122 (16) mmHg
- DBP (45 mg fed, 2 h): 66 (18) mmHg
- Pulse (45 mg fed, 2 h): 64 (9) bpm
- SBP (45 mg fed, 2 h): 120 (12) mmHg
- DBP (45 mg fed, 3 h): 69 (11) mmHg
- Pulse (45 mg fed, 3 h): 64 (9) bpm
- SBP (45 mg fed, 3 h): 125 (13) mmHg
- DBP (45 mg fed, 4 h): 67 (15) mmHg
- Pulse (45 mg fed, 4 h): 62 (10) bpm
- SBP (45 mg fed, 4 h): 123 (17) mmHg
- DBP (45 mg fed, 6 h): 70 (15) mmHg
- Pulse (45 mg fed, 6 h): 64 (8) bpm
- SBP (45 mg fed, 6 h): 120 (7) mmHg
- DBP (45 mg fed, 8 h): 71 (17) mmHg
- Pulse (45 mg fed, 8 h): 59 (9) bpm
- SBP (45 mg fed, 8 h): 121 (14) mmHg
- DBP (45 mg fed, 12 h): 69 (15) mmHg
- Pulse (45 mg fed, 12 h): 63 (10) bpm
- SBP (45 mg fed, 12 h): 124 (8) mmHg
- DBP (45 mg fed, 24 h): 69 (12) mmHg
- Pulse (45 mg fed, 24 h): 57 (9) bpm
- SBP (45 mg fed, 24 h): 114 (9) mmHg
- DBP (45 mg fed, 36 h): 71 (15) mmHg
- Pulse (45 mg fed, 36 h): 62 (9) bpm
- SBP (45 mg fed, 36 h): 127 (9) mmHg
- DBP (45 mg fed, 48 h): 73 (13) mmHg
- Pulse (45 mg fed, 48 h): 57 (4) bpm
- SBP (45 mg fed, 48 h): 116 (7) mmHg
- DBP (135 mg fasted, 0.5 h): 69 (5) mmHg
- Pulse (135 mg fasted, 0.5 h): 59 (6) bpm
- SBP (135 mg fasted, 0.5 h): 113 (8) mmHg
- DBP (135 mg fasted, 1 h): 70 (4) mmHg
- Pulse (135 mg fasted, 1 h): 61 (9) bpm
- SBP (135 mg fasted, 1 h): 110 (5) mmHg
- DBP (135 mg fasted, 2 h): 68 (6) mmHg
- Pulse (135 mg fasted, 2 h): 59 (7) bpm
- SBP (135 mg fasted, 2 h): 113 (10) mmHg
- DBP (135 mg fasted, 3 h): 68 (6) mmHg
- Pulse (135 mg fasted, 3 h): 59 (6) bpm
- SBP (135 mg fasted, 3 h): 113 (7) mmHg
- DBP (135 mg fasted, 4 h): 69 (6) mmHg
- Pulse (135 mg fasted, 4 h): 60 (7) bpm
- SBP (135 mg fasted, 4 h): 116 (8) mmHg
- DBP (135 mg fasted, 6 h): 66 (6) mmHg
- Pulse (135 mg fasted, 6 h): 67 (8) bpm
- SBP (135 mg fasted, 6 h): 113 (10) mmHg
- DBP (135 mg fasted, 8 h): 70 (6) mmHg
- Pulse (135 mg fasted, 8 h): 62 (4) bpm
- SBP (135 mg fasted, 8 h): 113 (8) mmHg
- DBP (135 mg fasted, 12 h): 69 (7) mmHg
- Pulse (135 mg fasted, 12 h): 70 (5) bpm
- SBP (135 mg fasted, 12 h): 119 (9) mmHg
- DBP (135 mg fasted, 24 h): 69 (3) mmHg
- Pulse (135 mg fasted, 24 h): 65 (9) bpm
- SBP (135 mg fasted, 24 h): 115 (7) mmHg
- DBP (135 mg fasted, 36 h): 67 (6) mmHg
- Pulse (135 mg fasted, 36 h): 73 (7) bpm
- SBP (135 mg fasted, 36 h): 118 (12) mmHg
- DBP (135 mg fasted, 48 h): 71 (5) mmHg
- Pulse (135 mg fasted, 48 h): 67 (9) bpm
- SBP (135 mg fasted, 48 h): 114 (10) mmHg
- DBP (405 mg fasted, 0.5 h): 70 (7) mmHg
- Pulse (405 mg fasted, 0.5 h): 61 (8) bpm
- SBP (405 mg fasted, 0.5 h): 116 (9) mmHg
- DBP (405 mg fasted, 1 h): 69 (8) mmHg
- Pulse (405 mg fasted, 1 h): 61 (8) bpm
- SBP (405 mg fasted, 1 h): 114 (6) mmHg
- DBP (405 mg fasted, 2 h): 68 (6) mmHg
- Pulse (405 mg fasted, 2 h): 58 (8) bpm
- SBP (405 mg fasted, 2 h): 114 (9) mmHg
- DBP (405 mg fasted, 3 h): 67 (5) mmHg
- Pulse (405 mg fasted, 3 h): 57 (6) bpm
- SBP (405 mg fasted, 3 h): 112 (6) mmHg
- DBP (405 mg fasted, 4 h): 69 (7) mmHg
- Pulse (405 mg fasted, 4 h): 60 (8) bpm
- SBP (405 mg fasted, 4 h): 115 (5) mmHg
- DBP (405 mg fasted, 6 h): 66 (5) mmHg
- Pulse (405 mg fasted, 6 h): 63 (8) bpm
- SBP (405 mg fasted, 6 h): 113 (4) mmHg
- DBP (405 mg fasted, 8 h): 67 (5) mmHg
- Pulse (405 mg fasted, 8 h): 59 (7) bpm
- SBP (405 mg fasted, 8 h): 113 (5) mmHg
- DBP (405 mg fasted, 12 h): 67 (4) mmHg
- Pulse (405 mg fasted, 12 h): 63 (8) bpm
- SBP (405 mg fasted, 12 h): 114 (8) mmHg
- DBP (405 mg fasted, 24 h): 71 (2) mmHg
- Pulse (405 mg fasted, 24 h): 60 (7) bpm
- SBP (405 mg fasted, 24 h): 113 (4) mmHg
- DBP (405 mg fasted, 36 h): 68 (4) mmHg
- Pulse (405 mg fasted, 36 h): 65 (5) bpm
- SBP (405 mg fasted, 36 h): 118 (4) mmHg
- DBP (405 mg fasted, 48 h): 71 (7) mmHg
- Pulse (405 mg fasted, 48 h): 65 (9) bpm
- SBP (405 mg fasted, 48 h): 118 (4) mmHg
- changes in vital signs or electrocardiography parameters (in vivo): no clinically significant changes
